± gives the expanded uncertainty stated by the source.
Assay: xn = mol fraction of the nth substance listed
Settings: 298.15 K, Liquid, Vibrating tube method

CCC(=O)c1ccccc1 [ethyl phenyl ketone] + Cc1ccccc1
mass density [kg/m3]
Settings	x2 = 0	x2 = 0.1048	x2 = 0.2025	x2 = 0.3006	x2 = 0.3991	x2 = 0.4998	x2 = 0.6004	x2 = 0.7036	x2 = 0.8028	x2 = 0.902
100 kPa	1005.3 ± 0.56	993.5 ± 0.51	982.2 ± 0.47	970.2 ± 0.43	957.5 ± 0.39	943.76 ± 0.37	929.02 ± 0.33	913.4 ± 0.32	897.3 ± 0.3	880.1 ± 0.29
2130 kPa	1006.4 ± 0.56	994.6 ± 0.51	983.3 ± 0.47	971.3 ± 0.43	958.6 ± 0.39	944.95 ± 0.36	930.27 ± 0.33	914.7 ± 0.3	898.6 ± 0.28	881.5 ± 0.27
4150 kPa	1007.5 ± 0.56	995.8 ± 0.51	984.5 ± 0.47	972.6 ± 0.43	959.9 ± 0.39	946.25 ± 0.36	931.61 ± 0.33	916 ± 0.3	900 ± 0.29	882.9 ± 0.28
6180 kPa	1008.7 ± 0.56	996.9 ± 0.51	985.7 ± 0.47	973.8 ± 0.43	961.2 ± 0.39	947.55 ± 0.36	932.93 ± 0.33	917.4 ± 0.3	901.4 ± 0.29	884.4 ± 0.28
8210 kPa	1009.8 ± 0.56	998.1 ± 0.51	986.9 ± 0.47	975 ± 0.43	962.4 ± 0.39	948.81 ± 0.36	934.23 ± 0.33	918.7 ± 0.3	902.8 ± 0.29	885.8 ± 0.28
10230 kPa	1010.9 ± 0.56	999.2 ± 0.51	988 ± 0.47	976.1 ± 0.43	963.6 ± 0.39	950.05 ± 0.36	935.53 ± 0.33	920 ± 0.3	904.2 ± 0.28	887.2 ± 0.28
11250 kPa	1011.5 ± 0.56	999.8 ± 0.51	988.6 ± 0.47	976.7 ± 0.43	964.2 ± 0.39	950.67 ± 0.36	936.16 ± 0.33	920.7 ± 0.31	904.8 ± 0.29	887.9 ± 0.28
12260 kPa	1012.1 ± 0.56	1000.3 ± 0.51	989.2 ± 0.47	977.3 ± 0.43	964.8 ± 0.39	951.26 ± 0.36	936.78 ± 0.33	921.3 ± 0.31	905.5 ± 0.29	888.6 ± 0.29
14290 kPa	1013.2 ± 0.56	1001.5 ± 0.51	990.3 ± 0.47	978.5 ± 0.43	966 ± 0.39	952.5 ± 0.36	938.05 ± 0.33	922.6 ± 0.31	906.8 ± 0.29	890 ± 0.28
16310 kPa	1014.3 ± 0.56	1002.6 ± 0.51	991.4 ± 0.47	979.6 ± 0.43	967.1 ± 0.39	953.69 ± 0.36	939.26 ± 0.33	923.8 ± 0.31	908.1 ± 0.29	891.3 ± 0.28
18340 kPa	1015.3 ± 0.56	1003.7 ± 0.51	992.5 ± 0.47	980.7 ± 0.43	968.3 ± 0.39	954.88 ± 0.36	940.49 ± 0.33	925.1 ± 0.31	909.4 ± 0.3	892.6 ± 0.29
20370 kPa	1016.4 ± 0.56	1004.8 ± 0.51	993.6 ± 0.47	981.8 ± 0.43	969.4 ± 0.39	956.04 ± 0.36	941.68 ± 0.33	926.3 ± 0.31	910.7 ± 0.3	893.9 ± 0.29
22390 kPa	1017.5 ± 0.56	1005.8 ± 0.51	994.7 ± 0.47	983 ± 0.43	970.5 ± 0.39	957.19 ± 0.36	942.87 ± 0.33	927.5 ± 0.31	911.9 ± 0.3	895.2 ± 0.29
24420 kPa	1018.5 ± 0.56	1006.9 ± 0.51	995.8 ± 0.47	984 ± 0.43	971.7 ± 0.39	958.35 ± 0.36	944.05 ± 0.33	928.7 ± 0.31	913.1 ± 0.3	896.5 ± 0.3
26450 kPa	1019.5 ± 0.56	1007.9 ± 0.51	996.8 ± 0.47	985.1 ± 0.43	972.7 ± 0.39	959.45 ± 0.36	945.21 ± 0.33	929.9 ± 0.31	914.3 ± 0.3	897.8 ± 0.3
28470 kPa	1020.5 ± 0.56	1009 ± 0.52	997.9 ± 0.47	986.2 ± 0.43	973.8 ± 0.39	960.58 ± 0.36	946.36 ± 0.33	931.1 ± 0.31	915.5 ± 0.3	899 ± 0.3
29490 kPa	1021 ± 0.57	1009.5 ± 0.51	998.4 ± 0.47	986.7 ± 0.43	974.3 ± 0.39	961.14 ± 0.36	946.92 ± 0.33	931.7 ± 0.31	916.1 ± 0.3	899.6 ± 0.3
30500 kPa	1021.6 ± 0.57	1010 ± 0.52	998.9 ± 0.47	987.2 ± 0.43	974.9 ± 0.4	961.68 ± 0.36	947.48 ± 0.34	932.2 ± 0.32	916.7 ± 0.31	900.2 ± 0.3
32530 kPa	1022.5 ± 0.57	1011 ± 0.52	999.9 ± 0.47	988.3 ± 0.43	976 ± 0.39	962.77 ± 0.36	948.6 ± 0.33	933.4 ± 0.32	917.9 ± 0.3	901.4 ± 0.3
34550 kPa	1023.5 ± 0.57	1012 ± 0.52	1000.9 ± 0.47	989.3 ± 0.43	977 ± 0.39	963.83 ± 0.36	949.68 ± 0.33	934.5 ± 0.31	919 ± 0.31	902.6 ± 0.31
36580 kPa	1024.5 ± 0.57	1013 ± 0.52	1001.9 ± 0.47	990.3 ± 0.43	978 ± 0.39	964.89 ± 0.36	950.78 ± 0.33	935.6 ± 0.32	920.2 ± 0.31	903.8 ± 0.31
38600 kPa	1025.5 ± 0.57	1013.9 ± 0.52	1002.9 ± 0.47	991.3 ± 0.43	979 ± 0.39	965.93 ± 0.36	951.82 ± 0.33	936.7 ± 0.31	921.2 ± 0.31	904.9 ± 0.3
39620 kPa	1025.9 ± 0.57	1014.4 ± 0.51	1003.4 ± 0.47	991.8 ± 0.42	979.6 ± 0.39	966.46 ± 0.35	952.38 ± 0.32	937.2 ± 0.3	921.8 ± 0.29	905.2 ± 0.3

— the NIST ThermoML archive (doi:10.1016/j.jct.2004.10.011)
